System: gegen Progesteron-11α-bernsteinsäurehalbester-ovalbumin erzeugten Antiserum
Assay: Cross-reactivity of steroids in the radioimmunoassay for progesterone (competitive binding, 125I-labelled progesterone-3 tracer, charcoal separation)
Set-up: species or system Kaninchen
Details: relative to Progesteron = 100; acid buffer; heterologous system (11α-protein conjugate antiserum, 3-iodinated tracer)
From the text: Die vorliegende Erfindung stellt ein Radioimmunobesteck und eine Bestimmungsmethode für Progesteron zur Verfügung, welche dadurch gekennzeichnet ist, daß man in saurem Medium, vorzugsweise einem sauren Puffer, eine Flüssigkeitsprobe mit einer bekannten Menge von gegen ein Progesteron/Proteinkonjugat erzeugten Antikörpern, wobei das Protein über eine Brückengruppe in 11-Stellung, im allgemeinen 11α-Stellung, an das Progesteron gebunden ist, und mit einer bekannten Menge eines Progesteronderivats,das in 3-Stellung über eine Brücke mit einem Rest substituiert ist, welcher ein oder mehrere Atome eines Jodradioisotops trägt, inkubiert, . das in dem entstandenen Antikörper /Antigenkomplex gebundene Steroid von der freien Steroidkomnonente abtrennt und deren Radioaktivität oder die des Antikörper/Antigenkomplexes mißt. Im allgemeinen wird das Antiserum zuletzt zugesetzt, und der Indikator wird vorzugsweise zum Standard bzw. zur Probe gegeben.
Wie oben erwähnt ist die eigentliche Bestimmung eine herkömmliche radioimmunologische Bestimmung mit Bindungskonkurrenz, d.h. sie ist abhängig von der Konkurrenz zwischen unmarkiertem Progesteron und einem radiojodierten Progesteronderivat um die Bindungsstellen eines progesteronspezifischen Antikörpers. Der an den Antikörper gebundene Anteil an jodiertem Progesteron ist der Menge des vorhandenen unmarkierten Progesterons umgekehrt proportional. Dieser Anteil wird dadurch gemessen, daß man die gebundenen und freien Komponenten trennt, im allgemeinen durch Adsorption der letzteren, und die Radioaktivität der einen oder der anderen mißt.
Die bevorzugte Reagenzienkombination für die erfindungsgemäße Bestimmungsmethode besteht aus einem gegen Progesteron-11α-bernsteinsäurehalbester-ovalbumin erzeugten Antiserum und Progesteron-3-(0-carboxymethyl)-oxim-[^125J]-jodhistamin. J]-jodhistamin.
Die Bestimmung wird auf herkömmliche Weise durchgeführt, beispielsweise erstellt man einen Satz Röhrchen, die jeweils ein Aliquot an 3-jodiertem Indikator und entweder eine bekannte Menge einer Standardprogestercnlösung in einem geeigneten, von Steroid befreiten Verdünnungsmittel oder eine unbekannte Probe enthalten. Vorzugsweise gibt man den Indikator zum Standard oder zur Probe. Ein Aliquot des Antiserums wird in jedes Röhrchen gegeben, dessen Inhalt gut vermischt und stehengelassen wird, vorzugsweise bei 0 - 4°C. Die Bestimmung läßt sich jedoch auch bei höheren Temperaturen, z.B. Raumtemperatur oder 37°C, durchführen. Nach Ablauf einer gewissen Zeit, vorzugsweise 21/2 - 5 Stunden, wird jedem Röhrchen ein Aliquot eines Trennmittels zugesetzt. Das Trennmittel ist beispielsweise ein zweiter Antikörper oder (NH4)2S04, jedoch vorzugsweise Aktivkohle. Man läßt dem Trennmittel genügend Zeit, um das freie Steroid zu binden, trennt es vom Rest des Röhrcheninhalts, im Falle von Aktivkohle vorzugsweise durch Zentrifugieren, und bestimmt die Radioaktivität der festen oder flüssigen Phase. Im Falle von Aktivkohle als Adsorptionsmittel wird vorzugsweise die feste Phase, d.h. die Radioaktivität des freien (nichtantikörpergebundenen) jodierten Indikators gemessen.Andernfalls kann man eine Probe der überstehenden flüssigen Phase nehmen und zählen. Man erstellt eine Standardkurve, und die in der Probe vorliegende Menge Progesteron kann aus der Kurve interpoliert werden.
Die Kreuzreaktivität verschiedener Steroide bei der erfindungsgemäßen Bestimmungsmethode ist unten angegeben.

| Compound | % Kreuzreaktivität |
| --- | --- |
| C[C@]12CC[C@H]3[C@@H](CCC4=CC(=O)CC[C@@]43C)[C@@H]1CC[C@@H]2C(=O)CO [Desoxycorticosteron] | 0,01% |
| CC(=O)[C@H]1CC[C@H]2[C@@H]3CC[C@@H]4C[C@H](O)CC[C@]4(C)[C@H]3CC[C@]12C [5ß-Pregnan-3α-01-20-on] | 8,0% |
| C[C@]12C[C@H](O)[C@H]3[C@@H](CCC4=CC(=O)CC[C@@]43C)[C@@H]1CC[C@@H]2C(=O)CO [Corticosteron] | 2,7% |
| CC(=O)[C@H]1CC[C@H]2[C@@H]3CC[C@H]4CC(=O)CC[C@]4(C)[C@H]3CC[C@]12C [5α-Pregnan-3,20-dion] | 6,0% |
| CC(=O)[C@H]1CC[C@H]2[C@@H]3CC=C4C[C@@H](O)CC[C@]4(C)[C@H]3CC[C@]12C [Pregnenolon] | 10,5% |
| CC(=O)[C@H]1CC[C@H]2[C@@H]3CC=C4C[C@@H](O[C@@H]5O[C@H](C(=O)O)[C@@H](O)[C@H](O)[C@H]5O)CC[C@]4(C)[C@H]3CC[C@]12C [Pregnenolonglucuronid] | 10,0% |
| C[C@H](O)[C@H]1CC[C@H]2[C@@H]3CCC4=CC(=O)CC[C@]4(C)[C@H]3CC[C@]12C [20α-Hydroxyprogesteron] | 0,25% |
| C[C@H](O)[C@H]1CC[C@H]2[C@@H]3CC[C@@H]4C[C@H](O)CC[C@]4(C)[C@H]3CC[C@]12C [5ß-Pregnan-3α, 20α-diol] | 0,7% |
| CC(=O)[C@H]1CC[C@H]2[C@@H]3CC=C4C[C@@H](OS(=O)(=O)O)CC[C@]4(C)[C@H]3CC[C@]12C [Pregnenolonsulfat] | 0,4% |
| CC(=O)[C@@]1(O)CC[C@H]2[C@@H]3CCC4=CC(=O)CC[C@]4(C)[C@H]3CC[C@@]21C [17α-Hydroxyprogesteron] | 1,3% |
| CC(=O)[C@H]1CC[C@H]2[C@@H]3CCC4=CC(=O)CC[C@]4(C)[C@H]3CC[C@]12C [Progesteron] | 100% |

Reference: patent EP0031926A2, “Radioimmunological set for the determination of progesterone and its use, and radioimmunoassay method for the determination of progesterone” (HOECHST AKTIENGESELLSCHAFT, priority 1979, dated 1981)
